In patent publication US8742106B2 (Novartis AG, priority 2009, dated 2014):
pKd, pKi: −log10 of the molar value.

Columns and labels:
[1] = target: T1, human orexin 1 receptors (Homo sapiens (Human), UniProt O43613); assay: Radioligand Binding Assay II ([3H]-SB649868 competition, cell membranes); conditions: read-out: binding II hOx1R Kd
Experimental: (§1) Radioligand Binding Assay II
(§2) For crude cell membrane preparations, cells (CHO, Chinese hamster ovary or HEK, human embryonic kidney) expressing human orexin 1 or human orexin 2 receptors, were washed with HEPES (10 mM, pH 7.5), scraped off the culture plates with the same buffer, and centrifuged at 4° C. for 5 min at 2500×g. The cell pellet was either stored at −80° C. or used directly. Before the experiments, cell membranes were re-suspended in binding assay buffer (10 mM HEPES, 0.5% (w/v) bovine serum albumin, pH 7.5) by homogenisation with a Polytron homogeniser at 50 Hz for 20 s. Cell membranes were also used as made available by commercial providers.
(§3) Bound radioactivity was measured, and data were analysed with the program XLFIT or Graphpad Prism. Protein concentration was determined according to the Bradford/BioRad Protein Assay Kit.
(§4) In competition experiments, cell homogenates (150 μl) were incubated in assay buffer (10 mM HEPES, pH 7.5, 0.5% (w/v) bovine serum albumin, 5 mM MgCl2, 1 mM CaCl2, and tween 0.05%) for 1 h at room temperature with about 1 nM of the radioligand [^3H]-SB649868, 66 Ci/mmole, 50 μl), and with various concentrations of compounds of the invention (50 μl) in triplicates; non-specific binding was determined in the presence of almorexant (10 μM). Reactions were terminated by vacuum filtration, 3 washes of ice cold wash buffer (Tris-HCl pH 7.4/10 mM, with NaCl 154 mM). Competition data is expressed in Table 2 as Kd [μM].

[2] = target: T2, human orexin 2 receptors (Homo sapiens (Human), UniProt O43614); assay: as above; conditions: read-out: binding II hOx2R Kd
T2 sequence (O43614 whole entry): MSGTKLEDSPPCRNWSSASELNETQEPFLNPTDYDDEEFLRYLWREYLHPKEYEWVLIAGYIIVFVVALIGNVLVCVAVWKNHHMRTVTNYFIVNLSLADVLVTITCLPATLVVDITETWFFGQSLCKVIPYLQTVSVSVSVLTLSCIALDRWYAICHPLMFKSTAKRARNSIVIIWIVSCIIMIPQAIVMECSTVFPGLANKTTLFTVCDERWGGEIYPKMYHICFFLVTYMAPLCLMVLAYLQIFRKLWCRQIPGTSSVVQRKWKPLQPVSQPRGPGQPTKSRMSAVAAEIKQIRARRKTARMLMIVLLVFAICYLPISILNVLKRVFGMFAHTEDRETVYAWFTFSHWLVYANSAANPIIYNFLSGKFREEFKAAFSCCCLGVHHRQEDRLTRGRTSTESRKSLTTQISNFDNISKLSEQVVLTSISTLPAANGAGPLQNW
Experimental: as §1, §2, §3
as §4, with “mM).” for “mM). Competition data is expressed in Table 2 as Kd [μM].”

[3] = target: T1, human orexin 1 receptors; assay: Calcium Accumulation in Cells (FLIPR), antagonism of orexin A; format: cell-based; conditions: antagonism of orexin A, Cheng-Prusoff corrected; read-out: FLIPR hOx1R Ki
[4] = target: T2, human orexin 2 receptors; assay: as above; format: cell-based; conditions: antagonism of orexin A, Cheng-Prusoff corrected; read-out: FLIPR hOx2R Ki
Procedure, shortened: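 Antagonism was measured as block of orexin A-evoked Ca²⁺ fluorescence (FLIPR), with orexin A added one hour after test compound (usually 10^−9–10^−5 M), which was first read alone for agonist activity. Human orexin 2 receptor cells were dye-loaded with 2 μM Fluo4-AM and 0.1 mM probenecid for 1 h.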

T1 sequence (O43613 whole entry): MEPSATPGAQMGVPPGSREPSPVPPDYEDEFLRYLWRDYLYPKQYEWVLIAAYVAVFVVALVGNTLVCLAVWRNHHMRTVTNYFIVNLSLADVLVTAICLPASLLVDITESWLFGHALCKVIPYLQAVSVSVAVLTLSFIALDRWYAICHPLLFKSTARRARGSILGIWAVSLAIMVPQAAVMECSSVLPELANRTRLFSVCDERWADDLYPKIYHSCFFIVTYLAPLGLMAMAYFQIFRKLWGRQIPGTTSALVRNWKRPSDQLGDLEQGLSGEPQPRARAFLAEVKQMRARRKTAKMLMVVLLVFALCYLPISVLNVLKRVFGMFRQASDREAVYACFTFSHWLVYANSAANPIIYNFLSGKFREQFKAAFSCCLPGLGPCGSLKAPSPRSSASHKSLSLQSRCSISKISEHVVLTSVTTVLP

Compound	pKd [1]	pKd [2]	pKi [3]	pKi [4]
COc1ccc([C@H](C)NC(=O)COc2cc(C(F)F)c3c(-c4ccccc4)nn(C)c3n2)cc1 [Example 6.17, (S)-2-(4-(difluoromethyl)-1-methyl-3-phenyl-1H-pyrazolo[3,4-b]pyridin-6-yloxy)-N-(1-(4-methoxyphenyl)ethyl)acetamide]	7.96	8.15	7.72	8.70
Cc1nn(C)c(C)c1C(C)NC(=O)COc1cc(C(F)F)c2c(-c3ccccc3)nn(C)c2n1 (stereo not drawn) [Example 6.20, 2-(4-(difluoromethyl)-1-methyl-3-phenyl-1H-pyrazolo[3,4-b]pyridin-6-yloxy)-N-(1-(1,3,5-trimethyl-1H-pyrazol-4-yl)ethyl)acetamide]	7.66	7.05	7.20	7.23
Cc1ccc([C@H](C)NC(=O)COc2cc(C(F)F)c3c(-c4ccccc4)nn(C)c3n2)cc1 [Example 6.21, (S)-2-(4-(difluoromethyl)-1-methyl-3-phenyl-1H-pyrazolo[3,4-b]pyridin-6-yloxy)-N-(1-p-tolylethyl)acetamide]	7.43	7.52	7.54	8.15
COc1ccc(C(C)NC(=O)COc2cc(C(F)F)c3c(-c4ccccc4)nn(C)c3n2)cn1 (stereo not drawn) [Example 6.22, 2-(4-(difluoromethyl)-1-methyl-3-phenyl-1H-pyrazolo[3,4-b]pyridin-6-yloxy)-N-(1-(6-methoxypyridin-3-yl)ethyl)acetamide]	7.25	7.38	6.76	7.43
COc1ccccc1-c1nn(C)c2nc(OCC(=O)N[C@@H](C)c3ccc(C)cc3)ccc12 [Example 6.24, (S)-2-(3-(2-methoxyphenyl)-1-methyl-1H-pyrazolo[3,4-b]pyridin-6-yloxy)-N-(1-p-tolylethyl)acetamide]	7.35	6.82	6.88	6.98
Cc1ccc([C@H](C)NC(=O)COc2ccc3c(C(C)(C)C)nn(C)c3n2)cc1 [Example 6.25, (S)-2-(3-tert-butyl-1-methyl-1H-pyrazolo[3,4-b]pyridin-6-yloxy)-N-(1-p-tolylethyl)acetamide]	6.62	6.79	6.26	7.19
Cc1ccc([C@H](C)NC(=O)COc2cc(C)c3c(C(C)C)nn(C)c3n2)cc1 [Example 6.26, (S)-2-(3-isopropyl-1,4-dimethyl-1H-pyrazolo[3,4-b]pyridin-6-yloxy)-N-(1-p-tolylethyl)acetamide]	6.92	7.12	6.79	7.49
Cc1ccc([C@H](C)NC(=O)COc2cc(C)c3c(-c4cc(C)oc4C)nn(C)c3n2)cc1 [Example 6.30, (S)-2-(3-(2,5-dimethylfuran-3-yl)-1,4-dimethyl-1H-pyrazolo[3,4-b]pyridin-6-yloxy)-N-(1-p-tolylethyl)acetamide]	7.72	6.77	8.00	7.21
COc1ccc([C@H](C)NC(=O)COc2cc(C)c3c(-c4cc(C)oc4C)nn(C)c3n2)cc1 [Example 6.31, (S)-2-(3-(2,5-dimethylfuran-3-yl)-1,4-dimethyl-1H-pyrazolo[3,4-b]pyridin-6-yloxy)-N-(1-(4-methoxyphenyl)ethyl)acetamide]	7.40	6.66	7.74	7.33
Cc1cc(-c2nn(C)c3nc(OCC(=O)NC(C)c4c(C)nn(C)c4C)cc(C)c23)c(C)o1 (stereo not drawn) [Example 6.33, 2-(3-(2,5-dimethylfuran-3-yl)-1,4-dimethyl-1H-pyrazolo[3,4-b]pyridin-6-yloxy)-N-(1-(1,3,5-trimethyl-1H-pyrazol-4-yl)ethyl)acetamide]	7.85	6.90	7.96	6.77
COc1ccc([C@H](C)NC(=O)COc2cc(C)c3c(-c4ccoc4C)nn(C)c3n2)cc1 [Example 6.34, (S)-2-(1,4-dimethyl-3-(2-methylfuran-3-yl)-1H-pyrazolo[3,4-b]pyridin-6-yloxy)-N-(1-(4-methoxyphenyl)ethyl)acetamide]	7.15	6.73	6.99	6.95
COc1ccnc(-c2nn(C)c3nc(OCC(=O)N[C@@H](C)c4ccc(C)cc4)cc(C)c23)c1 [Example 6.37, (S)-2-(3-(4-methoxypyridin-2-yl)-1,4-dimethyl-1H-pyrazolo[3,4-b]pyridin-6-yloxy)-N-(1-p-tolylethyl)acetamide]	8.22	7.77	8.15	8.00
Cc1ccc2c(n1)CC[C@@H]2NC(=O)COc1cc(C(F)F)c2c(-c3cc(C)oc3C)nn(C)c2n1 [Example 6.38, (S)-2-(4-(difluoromethyl)-3-(2,5-dimethylfuran-3-yl)-1-methyl-1H-pyrazolo[3,4-b]pyridin-6-yloxy)-N-(2-methyl-6,7-dihydro-5H-cyclopenta[b]pyridin-5-yl)acetamide]	6.91	6.57	7.04	7.19
COc1ccc([C@H](C)NC(=O)COc2cc(C(F)F)c3c(-c4cc(C)oc4C)nn(C)c3n2)cc1 [Example 6.39, (S)-2-(4-(difluoromethyl)-3-(2,5-dimethylfuran-3-yl)-1-methyl-1H-pyrazolo[3,4-b]pyridin-6-yloxy)-N-(1-(4-methoxyphenyl)ethyl)acetamide]	7.70	7.19	7.82	7.34
Cc1ccc2c(c1)CCC2NC(=O)COc1cc(C)c2c(C3CC3)nn(C)c2n1 (stereo not drawn) [Example 6.41, 2-(3-cyclopropyl-1,4-dimethyl-1H-pyrazolo[3,4-b]pyridin-6-yloxy)-N-(5-methyl-2,3-dihydro-1H-inden-1-yl)acetamide]	6.04	6.65	6.31	7.54
COc1ccc2c(c1)CC[C@@H]2NC(=O)COc1cc(C(F)F)c2c(C3CC3)nn(C)c2n1 [Example 6.42, (S)-2-(3-cyclopropyl-4-(difluoromethyl)-1-methyl-1H-pyrazolo[3,4-b]pyridin-6-yloxy)-N-(5-methoxy-2,3-dihydro-1H-inden-1-yl)acetamide]	7.20	7.85	7.08	8.00
COc1ccc2c(c1)CC[C@@H]2NC(=O)COc1cc(C(F)(F)F)c2c(C3CC3)nn(C)c2n1 [Example 6.43, (S)-2-(3-cyclopropyl-1-methyl-4-(trifluoromethyl)-1H-pyrazolo[3,4-b]pyridin-6-yloxy)-N-(5-methoxy-2,3-dihydro-1H-inden-1-yl)acetamide]	6.69	7.74	6.63	8.52
Cc1ccc2c(c1)CC[C@@H]2NC(=O)COc1cc(C)c2c(C3CC3)nn(C)c2n1 [Example 6.44, (S)-2-(3-cyclopropyl-1,4-dimethyl-1H-pyrazolo[3,4-b]pyridin-6-yloxy)-N-(5-methyl-2,3-dihydro-1H-inden-1-yl)acetamide]	7.17	7.55	6.65	7.85
Cc1cc(OCC(=O)NC(C)c2cnc3[nH]ccc3c2)nc2c1c(C1CC1)nn2C (stereo not drawn) [Example 6.57, N-(1-(1H-pyrrolo[2,3-b]pyridin-5-yl)ethyl)-2-(3-cyclopropyl-1,4-dimethyl-1H-pyrazolo[3,4-b]pyridin-6-yloxy)acetamide]	6.45	6.77	6.18	7.11
Cc1cc(OCC(=O)NC(C)c2ccc3c(ccn3C)c2)nc2c1c(C1CC1)nn2C (stereo not drawn) [Example 6.59, 2-(3-cyclopropyl-1,4-dimethyl-1H-pyrazolo[3,4-b]pyridin-6-yloxy)-N-(1-(1-methyl-1H-indol-5-yl)ethyl)acetamide]	7.15	6.79	6.90	7.20
Cc1ccc2c(n1)CCC2NC(=O)COc1cc(C)c2c(C3CC3)nn(C)c2n1 (stereo not drawn) [Example 6.61, 2-(3-cyclopropyl-1,4-dimethyl-1H-pyrazolo[3,4-b]pyridin-6-yloxy)-N-(2-methyl-6,7-dihydro-5H-cyclopenta[b]pyridin-5-yl)acetamide]	6.80	6.80	6.64	7.03
